System: Urease
Test: Test for urease-inhibiting effect in soil (NH3-N release from urea, closed vessel with ammonia trap)
Type: biochemical
Settings: soil at 40 % of maximum water capacity, 50 mg urea, t50 = day after start at which inhibition of urea hydrolysis is still 50 %
Experimental: 30 g auf 40 % der maximalen Wasserkapazität eingestellter Boden werden mit 1 ml Harnstofflösung entsprechend 50 mg Harnstoff versetzt. Gleichzeitig erfolgt die Applikation des Wirkstoffes, vorzugsweise in der Harnstofflösung gelöst. Die Konzentrationsangaben für die einzelnen geprüften Wirkstoffe in der nachfolgenden Tabelle beziehen sich auf die im Test verwendete Menge an Carbamidstickstoff. Der Boden, auf dessen Oberfläche die Harnstofflösung (mit und ohne Wirkstoff) aufgebracht wird, befindet sich in einem luftdicht verschlossenen Gefäß, in das gleichzeitig eine Vorlage eingebracht wird, die den aus dem Harnstoff freigesetzten Ammoniak als Ammonium auffängt. Durch tägliches Überspülen der Vorlage und Analyse der enthaltenen NH4-N-Mengen wird die NH3-N-Freisetzung aus dem Harnstoff bestimmt.
Aus der Summation der Ammonium-Mengen in der Vorlage wird die prozentuale Hemmung der Harnstoff-Hydrolyse in Abhängigkeit von der Zeit berechnet bzw. aus diesen Werten der t50-Wert rechnerisch ermittelt.
Als t50-Wert wird der Zeitpunkt in Tagen nach Versuchsbeginn verstanden, zu dem die Hemmung der Harnstoff-Hydrolyse noch 50 % beträgt.

In the case of CCCCNP(N)(N)=NP(N)(N)=S [Verbindung 5, 3-Butylamino-1,1,3,3-tetraamino-1-thio-1λ^5,3λ^5-diphosphaz-2-en], the t50-Wert (Konz. 0,1 % HS-N-bez.) is reported as 14,5 d.

In the case of CCCCNP(N)(=NP(N)(N)=S)NCCCC [Verbindung 1, 3,3-Bis(butylamino)-1,1,3,-triamino-1-thio-1λ^5,3λ^5-diphosphaz-2-en], the t50-Wert (Konz. 0,1 % HS-N-bez.) is reported as 9,4 d.

With CCCCNP(N)(=NP(N)(N)=O)NCCCC [Verbindung 2, 3,3-Bis(butylamino)-1,1,3,-triamino-1-oxo-1λ^5,3λ^5-diphosphaz-2-en] the t50-Wert (Konz. 0,1 % HS-N-bez.) was 8,8 d.

With CCN(CC)P(N)(N)=NP(N)(N)=S [Verbindung 7, 3-Diethylamino-1,1,3,3-tetraamino-1-thio-1λ^5,3λ^5-diphosphaz-2-en] the t50-Wert (Konz. 0,5 % HS-N-bez.) was 7,9 d.

CCCNP(N)(=NP(N)(N)=O)NCCC [Verbindung 4, 3,3-Bis(propylamino)-1,1,3,-triamino-1-oxo-1λ^5,3λ^5-diphosphaz-2-en] was tested, and the t50-Wert (Konz. 0,1 % HS-N-bez.) was 9,6 d.

CCCNP(N)(=NP(N)(N)=S)NCCC [Verbindung 3, 3,3-Bis(propylamino)-1,1,3,-triamino-1-thio-1λ^5,3λ^5-diphosphaz-2-en] was tested, and the t50-Wert (Konz. 0,1 % HS-N-bez.) was 10,4 d.

For CCCNP(N)(N)=NP(N)(N)=S [Verbindung 6, 3-Propylamino-1,1,3,3-tetraamino-1-thio-1λ^5,3λ^5-diphosphaz-2-en], the t50-Wert (Konz. 0,1 % HS-N-bez.) was 14,2 d.

From patent EP1756125B1, “1,1,3,3,3-[…]-1-OXO/THIO-1LAMBDA5,3LAMBDA5-DIPHOSPHAZ-2-ENES, METHOD FOR PRODUCING THEM AND THEIR USE AS AGENTS FOR […] […] […] UREA” (SKW STICK[…] GmbH, priority 2004, dated 2005)
